From patent US20080161309A1, “Novel Compounds” (priority 2004, published 2008) come the findings set out here.

The target in assay [1] is T1, human norepinephrine transporter (hNET) (Homo sapiens, UniProt P23975).
T1 construct: expressed in transfected cells; host or cells: HEK-293, membranes
In words: hNET receptor binding, [125I]-RTI-55, HEK-293 membranes. The conditions noted are these: Cheng-Prusoff, read-out: NET Ki. How it is done: Cell pastes of HEK-293 cells transfected with a human norepinephrine transporter cDNA were prepared. The cell pastes were resuspended in 400 to 700 ml of Krebs-HEPES assay buffer (25 mM HEPES, 122 mM NaCl, 3 mM KCl, 1.2 mM MgSO4, 1.3 mM CaCl2, and 11 mM glucose, pH 7.4) with a Polytron homogenizer at setting 7 for 30 seconds. Aliquots of membranes (5 mg/ml protein) were stored in liquid nitrogen until used.
The binding assay was set up in Beckman deep-well polypropylene plates with a total volume of 250 μl containing: drug (10^−5M to 10^−12M), cell membranes, and […] [^125I]-RTI-55 (Perkin Elmer, NEX-272; specific activity 2200 Ci/mmol). The reaction was incubated by gentle agitation for 90 minutes at room temperature and was terminated by filtration through Whatman GF/C filter plates using a Brandel 96-well plate harvester. Scintillation fluid (100 μl) was added to each well, and bound [^125I]-RTI-55 was determined using a Wallac Trilux Beta Plate Counter. Test compounds were run in duplicate, and specific binding was defined as the difference between binding in the presence and absence of 10 μM desipramine.
Excel and GraphPad Prism software were used for data calculation and analysis. IC50 values were converted to Ki values using the Cheng-Prusoff equation. The Ki values (nM) for the hNET are reported below in Table 1.

Assay [2] deals with T2, human serotonin transporter (hSERT) (Homo sapiens, UniProt P31645).
T2 construct: expressed in transfected cells; host or cells: HEK-293, membranes
T2 sequence (P31645 whole entry): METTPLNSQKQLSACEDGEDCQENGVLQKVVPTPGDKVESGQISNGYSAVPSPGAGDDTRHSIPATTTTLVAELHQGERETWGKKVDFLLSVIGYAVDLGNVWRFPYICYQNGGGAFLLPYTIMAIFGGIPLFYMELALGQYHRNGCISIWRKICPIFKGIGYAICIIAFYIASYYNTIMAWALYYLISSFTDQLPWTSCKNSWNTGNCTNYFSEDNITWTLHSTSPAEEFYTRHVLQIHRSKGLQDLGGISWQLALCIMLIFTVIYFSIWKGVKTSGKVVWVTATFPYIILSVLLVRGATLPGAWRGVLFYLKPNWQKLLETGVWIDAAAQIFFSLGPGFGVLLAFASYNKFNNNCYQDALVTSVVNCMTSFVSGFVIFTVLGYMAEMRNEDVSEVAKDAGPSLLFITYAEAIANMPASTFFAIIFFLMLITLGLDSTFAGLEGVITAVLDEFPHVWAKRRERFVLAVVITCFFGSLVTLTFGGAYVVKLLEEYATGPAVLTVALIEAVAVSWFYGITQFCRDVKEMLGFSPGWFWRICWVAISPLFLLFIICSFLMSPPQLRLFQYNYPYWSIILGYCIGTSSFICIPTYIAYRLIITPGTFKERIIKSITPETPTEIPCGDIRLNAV
In words: hSERT receptor binding, [125I]-RTI-55, HEK-293 membranes. The conditions noted are these: [125I]-RTI-55, HEK-293 membranes, Cheng-Prusoff; read-out: SERT Ki. The method, then: Cell pastes of HEK-293 cells transfected with a human serotonin transporter cDNA were prepared. […] Aliquots of membranes (−2.5 mg/ml protein) were stored in liquid nitrogen until used.
The reaction was incubated and gently agitated for 90 minutes at room temperature, and terminated by removal of assay volume. […] Test compounds were run in duplicate, and specific binding was defined as the difference between binding in the presence and absence of 10 μM citalopram. Excel and GraphPad Prism software were used for data calculation and analysis. IC50 values were converted to Ki values using the Cheng-Prusoff equation.

Counter-ions that a name gives are not always drawn.

T1 sequence (P23975 whole entry): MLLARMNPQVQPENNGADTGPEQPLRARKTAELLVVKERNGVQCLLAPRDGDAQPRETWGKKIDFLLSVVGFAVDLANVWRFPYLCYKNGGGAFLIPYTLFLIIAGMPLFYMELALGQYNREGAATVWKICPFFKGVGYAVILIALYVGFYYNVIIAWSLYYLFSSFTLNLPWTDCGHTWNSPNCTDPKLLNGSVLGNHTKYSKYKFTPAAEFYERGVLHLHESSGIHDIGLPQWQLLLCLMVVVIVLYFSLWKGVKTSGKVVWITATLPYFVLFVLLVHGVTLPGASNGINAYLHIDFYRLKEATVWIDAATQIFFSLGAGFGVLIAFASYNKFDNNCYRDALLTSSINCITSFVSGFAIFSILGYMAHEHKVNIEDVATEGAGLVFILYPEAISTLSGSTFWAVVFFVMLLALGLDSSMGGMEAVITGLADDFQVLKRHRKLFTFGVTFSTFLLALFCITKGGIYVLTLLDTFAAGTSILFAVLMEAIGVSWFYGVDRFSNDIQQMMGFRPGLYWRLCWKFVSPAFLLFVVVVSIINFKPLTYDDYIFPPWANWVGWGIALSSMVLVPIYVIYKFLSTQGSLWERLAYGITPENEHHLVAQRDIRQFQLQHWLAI

In general, Ki refers to a dissociation constant, usually derived from enzyme kinetics or from competition with a known ligand. Consider `COc1cc(C)ccc1O[C@H](c1ccc(F)cc1)[C@H]1CNCCO1` [Example 43, (2R)-2-[(1R)-(2-Methoxy-4-methylphenoxy)4-Fluorophenyl) methyl] morpholine hydrochloride], for which the Ki in assay [1] was found to be 1700 nM; in assay [2] it was 4.7 nM.

For `Cc1cccc([C@H](Oc2cc(F)ccc2Cl)[C@@H]2CNCCO2)c1` [Example 59, (2S)-2-[(1S)-(2-Chloro-5-fluorophenoxy)-m-tolyl-methyl] morpholine hydrochloride], the Ki was 10.3 nM in assay [1] and 524 nM in assay [2].

With `COc1cc(Br)ccc1O[C@@H](c1ccccc1)[C@@H]1CNCCO1` [Example 94, (2S)-2-[(1S)-(4-Bromo-2-methoxyphenoxy)phenylmethyl] morpholine fumarate], the values for the Ki in assay [1] and in assay [2] were 12.1 nM and 22.3 nM, respectively.

Turning to `Fc1cccc([C@H](Oc2c(F)cccc2Cl)[C@@H]2CNCCO2)c1` [Example 60, (2S)-2-[(1S)-(2-Chloro-6-fluorophenoxy) (3-fluorophenyl)methyl] morpholine hydrochloride], the Ki in assay [1] was 1.91 nM; in assay [2], 314 nM.

Take `Fc1cc(F)c(O[C@@H](c2ccccc2)[C@@H]2CNCCO2)c(F)c1` [Example 86, (2S)-2-[(1S)-Phenyl-(2,4,6-trifluorophenoxy)methyl] morpholine fumarate]: the inhibitory constant (Ki) in assay [1] came out at 14.3 nM; in assay [2], 652 nM.

For `COc1cc(F)ccc1O[C@@H](c1ccc(Cl)cc1)[C@@H]1CNCCO1` [Example 71, (2S)-2-[(1S)-(4-Chloro-phenyl) (4-fluoro-2-methoxyphenoxy)methyl] morpholine hydrochloride], the figures for the Ki in assay [1] and in assay [2] were 28.6 nM and 77.7 nM, respectively.

With `COc1cc(C)ccc1O[C@@H](c1cccc(Cl)c1)[C@@H]1CNCCO1` [Example 101, (2S)-2-[(1S)-(3-Chlorophenyl) (2-methoxy-4-methyl phenoxy)methyl] morpholine fumarate], the Ki in assay [1] is 19.4 nM; in assay [2], 67.1 nM.

In the case of `COc1c(Cl)c(Cl)cc(Cl)c1O[C@@H](c1ccccc1)[C@@H]1CNCCO1` [Example 91, (2S)-2-[(1S)-Phenyl-(3,4,6-trichloro-2-methoxyphenoxy)methyl] morpholine fumarate], the Ki in assay [1] is 228 nM; in assay [2] it was 26.7 nM.

For the compound `Clc1cccc(O[C@@H](c2ccccc2)[C@@H]2CNCCO2)c1Cl` [Example 81, (2S)-2-[(1S)-(2,3-Dichlorophenoxy)phenylmethyl] morpholine fumarate], the Ki in assay [1] was determined as 7.1 nM; in assay [2], 26.4 nM.

Turning to `COc1cccc([C@H](Oc2ccc(F)cc2OC)[C@@H]2CNCCO2)c1` [Example 68, (2S)-2-[(1S)-(4-Fluoro-2-methoxyphenoxy) (3-methoxyphenyl)methyl] morpholine hydrochloride], the figures for the Ki in assay [1] and in assay [2] were 20.1 nM and 408 nM, respectively.

In the case of `COc1cccc([C@H](Oc2ccc(F)cc2Cl)[C@@H]2CNCCO2)c1` [Example 63, (2S)-2-[(1S)-(2-Chloro-4-fluorophenoxy)-(3-methoxyphenyl)methyl] morpholine hydrochloride], the values for the Ki in assay [1] and in assay [2] were 3.21 nM and 124 nM, respectively.

On to `COc1cc(Cl)ccc1O[C@@H](c1cccc(Cl)c1)[C@@H]1CNCCO1` [Example 100, (2S)-2-[(1S)-(4-Chloro-2-methoxyphenoxy) (3-chloro phenyl)methyl] morpholine fumarate], for which the figures for the Ki in assay [1] and in assay [2] were 33 nM and 32.9 nM, respectively.

With `Fc1cccc([C@H](Oc2ccc(C(F)(F)F)cc2)[C@@H]2CNCCO2)c1` [Example 67, (2S)-2-[(1S)-(3-Fluorophenyl) (4-trifluoromethyl phenoxy)methyl] morpholine hydrochloride], the Ki in assay [1] worked out at 390 nM; in assay [2], 35.5 nM.

For `COc1c(Cl)cccc1O[C@@H](c1ccccc1)[C@@H]1CNCCO1` [Example 92, (2S)-2-[(1S)-(3-Chloro-2-methoxyphenoxy)phenylmethyl] morpholine fumarate], the figures for the Ki in assay [1] and in assay [2] were 86.8 nM and 71.7 nM, respectively.

Take `COc1cccc(F)c1O[C@@H](c1cccc(F)c1)[C@@H]1CNCCO1` [Example 50, (2S)-2-[(1S)-(2-Fluoro-6-methoxyphenoxy)(3-fluorophenyl)methyl] morpholine hydrochloride]: the Ki in assay [1] was 8 nM; in assay [2] it was 1070 nM.

Take `Fc1cccc([C@H](Oc2ccc(F)cc2F)[C@@H]2CNCCO2)c1` [Example 64, (2S)-2-[(1S)-(2,4-Difluorophenoxy) (3-fluoro-phenyl)methyl] morpholine hydrochloride]: the Ki was 13.8 nM in assay [1] and 511 nM in assay [2].

For `COc1cc(Cl)ccc1O[C@@H](c1ccc(Cl)cc1)[C@@H]1CNCCO1` [Example 73, (2S)-2-[(1S)-(4-Chloro-2-methoxyphenoxy) (4-chlorophenyl)methyl] morpholine hydrochloride], the Ki is 75.7 nM in assay [1] and 14 nM in assay [2].

On to `COc1cc(C)ccc1O[C@@H](c1cccc(C)c1)[C@@H]1CNCCO1` [Example 55, (2S)-2-[(1S)-(2-Methoxy-4-methylphenoxy)-m-tolyl-methyl] morpholine hydrochloride], for which the Ki in assay [1] is 20.4 nM; in assay [2] it was 109 nM.

In the case of `COc1cc(C)ccc1O[C@@H](c1ccc(F)cc1)[C@@H]1CNCCO1` [Example 42, (2S)-2-[(1S)-(2-methoxy-4-methylphenoxy)4-fluorophenyl) methyl] morpholine hydrochloride], the Ki in assay [1] was found to be 11.4 nM; in assay [2] it was 69.2 nM.

Take `Fc1c(F)c(F)c(O[C@@H](c2ccccc2)[C@@H]2CNCCO2)c(F)c1F` [Example 85, (2S)-2-[(1S)-(Pentafluorophenyloxy) (phenyl)methyl] morpholine fumarate]: the Ki in assay [1] worked out at 10.9 nM; in assay [2] it was 385 nM.

As to `Fc1cccc([C@H](Oc2ccc(Cl)cc2F)[C@@H]2CNCCO2)c1` [Example 44, (2S)-2-[(1S)-(4-Chloro-2-fluorophenoxy)(3-fluorophenyl)methyl] morpholine hydrochloride], the Ki in assay [1] was 33.3 nM; in assay [2] it was 74.8 nM.

Consider “(2S)-2-[(1S)-Pentachlorophenyloxy phenyl methyl] morpholine fumarate [Example 95]”, for which the Ki in assay [1] amounted to 587 nM; in assay [2] it was 39.6 nM.

On to `FC(F)(F)c1ccc(Cl)c(O[C@@H](c2ccccc2)[C@@H]2CNCCO2)c1` [Example 88, (2S)-2-[(1S)-(2-Chloro-5-trifluoromethylphenoxy)phenylmethyl] morpholine fumarate], for which the values for the Ki in assay [1] and in assay [2] were 420 nM and 760 nM, respectively.

For the compound `Cc1c(Cl)cccc1O[C@@H](c1ccccc1)[C@@H]1CNCCO1` [Example 82, (2S)-2-[(1S)-(3-Chloro-2-methylphenoxy)phenylmethyl] morpholine fumarate], the results for the Ki in assay [1] and in assay [2] were 11.9 nM and 12.1 nM, respectively.

Turning to `COc1cc(C(F)(F)F)ccc1O[C@@H](c1ccccc1)[C@@H]1CNCCO1` [Example 99, (2S)-2-[(1S)-(2-Methoxy-4-trifluoromethylphenoxy)phenylmethyl] morpholine fumarate], the Ki in assay [1] came to 188 nM; in assay [2], 35.8 nM.
